This passage reports IC50 results from patent US8946266B2, “Substituted triazole and imidazole derivatives as gamma secretase modulators” (Janssen Pharmaceuticals, Inc., priority 2009, dated 2015).

Experiment [1] has as its system Aβ42. In words: γ-secretase-modulating activity, Method 2: Aβ42 Alphalisa in supernatant of SKNBE2 cells carrying APP 695-wild type (Table 3b). The format is cell-based. Conditions: overnight. How it is done: (§1) Screening was carried out using SKNBE2 cells carrying the APP 695-wild type, grown in Dulbecco's Modified Eagle's Medium/Nutrient mixture F-12 (DMEM/NUT-mix F-12) (HAM) provided by Invitrogen (cat no. 10371-029) containing 5% Serum/Fe supplemented with 1% non-essential amino acids, 1-glutamine 2 mM, Hepes 15 mM, penicillin 50 U/ml (units/ml) en streptomycin 50 μg/ml. Cells were grown to near confluency.
(§2) The screening was performed using a modification of the assay as described in Citron et al (1997) Nature Medicine 3: 67. Briefly, cells were plated in a 384-well plate at 10^4 cells/well in Ultraculture (Lonza, BE12-725F) supplemented with 1% glutamine (Invitrogen, 25030-024), 1% non-essential amino acid (NEAA), penicillin 50 U/ml en streptomycin 50 μg/ml in the presence of test compound at different test concentrations. The cell/compound mixture was incubated overnight at 37° C., 5% CO2. The next day the media were assayed by two sandwich immuno-assays, for Aβ42 and Aβtotal.
(§3) Aβtotal and Aβ42 concentrations were quantified in the cell supernatant using the Aphalisa technology (Perkin Elmer). Alphalisa is a sandwich assay using biotinylated antibody attached to streptavidin coated donorbeads and antibody conjugated to acceptor beads. In the presence of antigen, the beads come into close proximity. The excitation of the donor beads provokes the release of singlet oxygen molecules that trigger a cascade of energy transfer in the acceptor beads, resulting in light emission. To quantify the amount of Aβ42 in the cell supernatant, monoclonal antibody specific to the C-terminus of Aβ42 (JRF/cAβ42/26) was coupled to the receptor beads and biotinylated antibody specific to the N-terminus of Aβ (JRF/AβN/25) was used to react with the donor beads. To quantify the amount of Aβ total in the cell supernatant, monoclonal antibody specific to the N-terminus of Aβ (JRF/AβN/25) was coupled to the receptor beads and biotinylated antibody specific to the mid region of Aβ (biotinylated 4G8) was used to react with the donor beads.
To obtain the values reported in Table 3b, the data were calculated as percentage of the maximum amount of amyloid Beta 42 measured in the absence of the test compound.
(§4) The sigmoidal dose response curves were analyzed using non-linear regression analysis with percentage of the control plotted against the log concentration of the compound. A 4-parameter equation was used to determine the IC50.
(§5) The IC50 values are shown in Table 3b (Aβtot means Aβtotal).
(In general: In Alpha technology, singlet oxygen from a donor bead excites a nearby acceptor bead.)

Experiment [2] deals with Aβtotal. In words: γ-secretase-modulating activity, Method 2: Aβtotal Alphalisa in supernatant of SKNBE2 cells carrying APP 695-wild type (Table 3b). The format is cell-based. Particulars: overnight, read-out: IC50 Aβtot. How it is done:
as §1, §2, §3, §4, §5

Molecules are shown by their SMILES. Like-named read-outs stand apart in the source and are kept apart here.

Take `COc1cc(-c2nc(N(C)c3ccc(F)cc3C(F)(F)F)n(C)n2)ccc1-n1cnc(C)c1` [Compound 50]: the IC50 was 110 nM in experiment [1] and over 10000 nM in experiment [2].
For `COc1cc(-c2nc(N[C@@H](C)c3ccc(F)cc3)n(C)n2)ccc1-n1cnc(C)c1` [Compound 51], in that order: 324 nM and over 10000 nM.
For `COc1cc(-c2nc(-c3ccc(F)cc3)nn2C)ccc1-n1cnc(C)c1` [Compound 52], in that order: 5750 nM and over 10000 nM.
Consider `COc1cc(-c2nc(N(C)c3ccc(F)cc3C(F)(F)F)nn2C)ccc1-n1cnc(C)c1` [Compound 53], for which the IC50 in experiment [1] and in experiment [2] was over 10000 nM in each case.
As to `COc1cc(-c2nc(-c3ccccc3C(F)(F)F)nn2C)ccc1-n1cnc(C)c1` [Compound 54], the IC50 is 4170 nM in experiment [1] and over 10000 nM in experiment [2].
In the same order, the values of `COc1cccc(-c2n[nH]c(-c3ccc(-n4cnc(C)c4)c(OC)c3)n2)c1` [Compound 55] are 234 nM and over 10000 nM.
In the same order, the values of `COc1cccc(-c2nc(-c3ccc(-n4cnc(C)c4)c(OC)c3)n(C)n2)c1` [Compound 56] are over 10000 nM and over 10000 nM.
In the same order, the values of `COc1cc(-c2nc(Cc3ccc(F)cc3C(F)(F)F)nn2C)ccc1-n1cnc(C)c1` [Compound 57] are 851 nM and over 10000 nM.
For `COc1cc(-c2nc(-c3ccc(-n4cnc(C)c4)c(OC)c3)n(C)n2)ccc1Cl` [Compound 58], the IC50 in experiment [1] and in experiment [2] was over 10000 nM throughout.
With `COc1cc(-c2nc(/C=C/c3ccc(F)cc3)nn2C)ccc1-n1cnc(C)c1` [Compound 59], the IC50 in experiment [1] is 2950 nM; in experiment [2], over 10000 nM.
For `COc1cc(-c2nc(C3(c4ccc(F)cc4)CC3)nn2C)ccc1-n1cnc(C)c1` [Compound 60], in that order: 8510 nM and over 10000 nM.
Take `COc1cc(-c2nc(Nc3cc(F)c(F)c(F)c3)nn2C)ccc1-n1cnc(C)c1` [Compound 61]: the IC50 in experiment [1] was 4790 nM; in experiment [2], over 10000 nM.
As for `COc1cc(-c2nc(N[C@@H](C)c3ccc(F)cc3)nn2C)ccc1-n1cnc(C)c1` [Compound 62], the figures for the IC50 in experiment [1] and in experiment [2] were 3240 nM and over 10000 nM, respectively.
In the same order, the values of `COc1cc(-c2ncn(-c3ccccc3C(F)(F)F)n2)ccc1-n1cnc(C)c1` [Compound 63] are 1350 nM and over 10000 nM.
In the same order, the values of `COc1cc(-c2nc(N3C[C@@H](C)O[C@@H](C)C3)nn2C)ccc1-n1cnc(C)c1` [Compound 64] are over 10000 nM and over 10000 nM.
In the same order, the values of `COc1cc(-c2ncn(-c3cccc(C(F)(F)F)c3)n2)ccc1-n1cnc(C)c1` [Compound 65] are 2240 nM and over 10000 nM.
Turning to `COc1cc(-c2nc(-c3ccccc3C(F)(F)F)n(C(C)C)n2)ccc1-n1cnc(C)c1` [Compound 67], the IC50 in experiment [1] worked out at 200 nM; in experiment [2] it was 9550 nM.
Regarding `COc1cc(-c2n[nH]c(C(CCCCCl)c3ccccc3C(F)(F)F)n2)ccc1-n1cnc(C)c1` (stereo not drawn) [Compound 70], the IC50 is 309 nM in experiment [1] and over 10000 nM in experiment [2].
Consider `COc1cc(-c2nc(N3CCOCC3)n(-c3ccc(F)cc3)n2)ccc1-n1cnc(C)c1` [Compound 71], for which the half-inhibitory concentration (IC50) was 1150 nM in experiment [1] (Homo sapiens) and over 10000 nM in experiment [2] (Homo sapiens).
As to `COc1cc(-c2nc(-c3cc(C(F)(F)F)ccc3C)n(C)n2)ccc1-n1cnc(C)c1` [Compound 72], the IC50 in experiment [1] was 288 nM; in experiment [2], over 10000 nM.
For `COc1cc(-c2nc(-c3cc(C(F)(F)F)ccc3C)n(C(C)C)n2)ccc1-n1cnc(C)c1` [Compound 73], in that order: 200 nM and 9550 nM.
In the same order, the values of `COc1cc(-c2nc(N3CCC(c4ccccc4)CC3)n(C)n2)ccc1-n1cnc(C)c1` [Compound 77] are 145 nM and 8320 nM.
As to `COc1cc(-c2nc(N3CCCC(c4ccccc4)C3)n(C(C)C)n2)ccc1-n1cnc(C)c1` (stereo not drawn) [Compound 79], the IC50 in experiment [1] (Homo sapiens) amounted to 36 nM; in experiment [2] (Homo sapiens), 6610 nM.
Turning to `COc1cc(-c2nc(N3CCc4ccccc4C3)n(C)n2)ccc1-n1cnc(C)c1` [Compound 81], the concentration for half-maximal inhibition (IC50) in experiment [1] is 224 nM; in experiment [2] it was over 10000 nM.
For `COc1cc(-c2nc(N3CCc4ccccc4C3)n(C(C)C)n2)ccc1-n1cnc(C)c1` [Compound 82], in that order: 603 nM and 7760 nM.
For `COc1cc(-c2nc(-c3ccc(F)cc3)n(C(C)C)n2)ccc1-n1cnc(C)c1` [Compound 83], in that order: 257 nM and over 10000 nM.
For `COc1cc(-c2nc(-c3ccccc3Cl)n(CC3CC3)n2)ccc1-n1cnc(C)c1` [Compound 85], in that order: 309 nM and over 10000 nM.
On to `COc1cc(-c2nc(-c3ccccc3Cl)n(CC(F)(F)F)n2)ccc1-n1cnc(C)c1` [Compound 86], for which the results for the IC50 in experiment [1] and in experiment [2] were 195 nM and over 10000 nM, respectively.
For `COCCn1nc(-c2ccc(-n3cnc(C)c3)c(OC)c2)nc1-c1ccccc1Cl` [Compound 87], in that order: 759 nM and over 10000 nM.
In the same order, the values of `COc1cc(-c2nc(-c3cc(Cl)ccc3C)n(C)n2)ccc1-n1cnc(C)c1` [Compound 88] are 209 nM and over 10000 nM.
As to `COc1cc(-c2nc(C(C)(O)c3cccc(C(F)(F)F)c3)n(C(C)C)n2)ccc1-n1cnc(C)c1` (stereo not drawn) [Compound 89], the IC50 in experiment [1] (Homo sapiens) worked out at 501 nM; in experiment [2] (Homo sapiens), 7940 nM.
Consider `COc1cc(-c2nc(C3(c4cc(C(F)(F)F)ccc4F)CC3)n(C)n2)ccc1-n1cnc(C)c1` [Compound 90], for which the IC50 in experiment [1] came to 562 nM; in experiment [2] it was 8910 nM.
In the case of `COc1cc(-c2nc(C(=O)c3cccc(C(F)(F)F)c3)n(C(C)C)n2)ccc1-n1cnc(C)c1` [Compound 91], the IC50 was 2340 nM in experiment [1] (Homo sapiens) and over 10000 nM in experiment [2] (Homo sapiens).
Turning to `CNc1nc(-c2ccc(-n3cnc(C)c3)c(OC)n2)nn1-c1cccc(C(F)(F)F)c1` [Compound 92], the IC50 in experiment [1] was 933 nM; in experiment [2], over 10000 nM.
In the case of `CNc1nc(-c2ccc(-n3cnc(C)c3)c(OC)c2)nn1-c1cccc(C(F)(F)F)c1` [Compound 93], the figures for the IC50 in experiment [1] (Homo sapiens) and in experiment [2] (Homo sapiens) were 282 nM and over 10000 nM, respectively.
For `COc1cc(-c2nc(NC3CCCCC3)n(C)n2)ccc1-n1cnc(C)c1` [Compound 94], the half-inhibitory concentration (IC50) in experiment [1] is 871 nM; in experiment [2] it was over 10000 nM.
In the same order, the values of `COc1cc(-c2nc(NC3CCCC(C(F)(F)F)C3)n(C)n2)ccc1-n1cnc(C)c1` (stereo not drawn) [Compound 95] are 912 nM and over 10000 nM.
In the same order, the values of `COc1cc(-c2nc(NC3CCCC(C(F)(F)F)C3)n(C)n2)ccc1-n1cnc(C)c1` (stereo not drawn) [Compound 96] are 339 nM and over 10000 nM.
For `Cc1cn(-c2ccc(-c3nc(Nc4ccccc4C)n(C)n3)cc2OC(F)(F)F)cn1` [Compound 98], in that order: 288 nM and over 10000 nM.
`COc1cc(-c2nc(Nc3ccccc3Cl)n(C)n2)ccc1-n1cnc(C)c1` [Compound 101]: the results for the IC50 in experiment [1] and in experiment [2] were 41 nM and over 10000 nM, respectively.
In the same order, the values of `COc1cc(-c2nc(Nc3ccccc3Br)n(C)n2)ccc1-n1cnc(C)c1` [Compound 102] are 56 nM and over 10000 nM.
For the molecule `COc1cc(-c2nc(Nc3cccc(Cl)c3)n(C)n2)ccc1-n1cnc(C)c1` [Compound 103], the IC50 in experiment [1] is 36 nM; in experiment [2], 6310 nM.
As to `COc1cc(-c2nc(Nc3cccc(F)c3)n(C)n2)ccc1-n1cnc(C)c1` [Compound 104], the IC50 was determined as 115 nM in experiment [1] and 8320 nM in experiment [2].
For `COc1cc(-c2nc(Nc3ccc(F)cc3)n(C)n2)ccc1-n1cnc(C)c1` [Compound 106], in that order: 132 nM and over 10000 nM.
For `COc1nc(-c2nc(Nc3ccccc3F)n(C)n2)ccc1-n1cnc(C)c1` [Compound 107], in that order: 148 nM and over 10000 nM.
For `COc1cc(-c2nc(Nc3ccc(Cl)cc3)n(C)n2)ccc1-n1cnc(C)c1` [Compound 108], in that order: 151 nM and 7760 nM.
On to `COc1cc(-c2nc(Nc3ccc(F)cc3Cl)n(C)n2)ccc1-n1cnc(C)c1` [Compound 109], for which the IC50 was 117 nM in experiment [1] and over 10000 nM in experiment [2].
As for `COc1cc(-c2nc(Nc3cc(F)ccc3F)n(C)n2)ccc1-n1cnc(C)c1` [Compound 110], the IC50 in experiment [1] is 91 nM; in experiment [2], over 10000 nM.

One may read the IC50 as the point on the concentration scale where inhibition reaches its midpoint.
